Reference: paper PMC8286840, “Identifying SARS-CoV-2 antiviral compounds by screening for small molecule inhibitors of Nsp3 papain-like protease” (Biochemical Journal, 2021)
Counter-ions that a name gives are not always drawn. Like-named read-outs stand apart in the source and are kept apart here.

Experiments:
[1] = molecular target: T1, SARS-CoV-2 PLpro (nsp3 1564–1878) (Severe acute respiratory syndrome coronavirus 2, UniProt P0DTD1); assay: biochemical; parameters: FRET-quenched peptide (Pro3) cleavage by PLpro, 10 min pre-incubation, slope over 20 min, normalised to no-compound control; settings: high concentration screen, read-out: % of control remaining
[2] = molecular target: T1, SARS-CoV-2 PLpro (nsp3 1564–1878); assay: biochemical; parameters: FRET-quenched peptide (Pro3) cleavage by PLpro, 10 min pre-incubation, slope over 20 min, normalised to no-compound control; settings: low concentration screen, read-out: % of control remaining
Description: The plates were organized with columns 3–22 containing the compounds; the remaining columns were used for reaction controls including substrate only and substrate with enzyme but no compound (Figure 3Aii). The PLpro enzyme was pre-incubated with the compounds for 10 min, and then the reaction was initiated by the addition of substrate. […] We incubated the inhibitors with PLpro before the enzymatic reaction so that the slow-binding inhibitors will not be missed out [21]. […] Fluorescence was read on a Spark multimode microplate reader (Tecan) with an excitation wavelength at 330 nm and emission wavelength at 420 nm. […] An amount of 5 µl of the enzyme was pre-incubated with compounds for 10 min before the addition of 15 µl substrate. Fluorescence was monitored at 2 min for 20 min with 3 min intervals giving a total of seven readings.

Structure (SMILES): COc1ccc(C[C@@H](C)NC[C@H](O)c2ccc(O)c(NC=O)c2)cc1 [Formoterol hemifumarate]
- remaining activity at 3.75 µM ([1]; Well no.=5014): 104%
- remaining activity at 1.25 µM ([2]; Well no.=5014): 109%

Structure (SMILES): COc1ccc(C[C@@H](C)NC[C@H](O)c2ccc(O)c(NC=O)c2)cc1 [Formoterol]
- remaining activity at 3.75 µM ([1]; Well no.=473): 99.6%
- remaining activity at 1.25 µM ([2]; Well no.=473): 101%

Structure (SMILES): C=C[C@@]1(C)CC(=O)[C@]2(O)[C@@]3(C)[C@@H](O)CCC(C)(C)[C@@H]3[C@H](O)[C@H](OC(C)=O)[C@@]2(C)O1 [Forskolin]
- remaining activity at 3.75 µM ([1]; Well no.=423): 98.9%
- remaining activity at 3.75 µM ([1]; Well no.=3281): 99.2%
- remaining activity at 3.75 µM ([1]; Well no.=8331): 95.4%
- remaining activity at 1.25 µM ([2]; Well no.=423): 99.9%
- remaining activity at 1.25 µM ([2]; Well no.=3281): 99.5%
- remaining activity at 1.25 µM ([2]; Well no.=8331): 98.2%

Structure (SMILES): CC(C)CN(C[C@@H](OP(=O)(O)O)[C@H](Cc1ccccc1)NC(=O)O[C@H]1CCOC1)S(=O)(=O)c1ccc(N)cc1 [Fosamprenavir]
- remaining activity at 3.75 µM ([1]; Well no.=7846): 102%
- remaining activity at 1.25 µM ([2]; Well no.=7846): 104%

Structure (SMILES): C[C@@H](O[C@H]1OCCN(Cc2nn(P(=O)(O)O)c(=O)[nH]2)[C@H]1c1ccc(F)cc1)c1cc(C(F)(F)F)cc(C(F)(F)F)c1 [Fosaprepitant (dimeglumine)]
- remaining activity at 3.75 µM ([1]; Well no.=7483): 97.1%
- remaining activity at 1.25 µM ([2]; Well no.=7483): 104%

Structure (SMILES): C[C@@H](O[C@H]1OCCN(Cc2nn(P(=O)(O)O)c(=O)[nH]2)[C@H]1c1ccc(F)cc1)c1cc(C(F)(F)F)cc(C(F)(F)F)c1 [Fosaprepitant dimeglumine]
- remaining activity at 3.75 µM ([1]; Well no.=5269): 95.4%
- remaining activity at 1.25 µM ([2]; Well no.=5269): 97.5%

Structure (SMILES): COc1ccc(/C=C\c2cc(OC)c(OC)c(OC)c2)cc1OP(=O)(O)O [Fosbretabulin disodium]
- remaining activity at 3.75 µM ([1]; Well no.=5660): 90.4%
- remaining activity at 1.25 µM ([2]; Well no.=5660): 95.9%

Structure (SMILES): O=C(O)P(=O)(O)O [Foscarnet Sodium]
- remaining activity at 3.75 µM ([1]; Well no.=5321): 95.6%
- remaining activity at 1.25 µM ([2]; Well no.=5321): 101%

Structure (SMILES): CCC(=O)O[C@@H](O[P@](=O)(CCCCc1ccccc1)CC(=O)N1C[C@H](C2CCCCC2)C[C@H]1C(=O)O)C(C)C [Fosinopril (sodium)]
- remaining activity at 3.75 µM ([1]; Well no.=8750): 94.7%
- remaining activity at 1.25 µM ([2]; Well no.=8750): 93.5%

Structure (SMILES): CCC(=O)O[C@@H](O[P@](=O)(CCCCc1ccccc1)CC(=O)N1C[C@H](C2CCCCC2)C[C@H]1C(=O)O)C(C)C [Fosinopril Sodium]
- remaining activity at 3.75 µM ([1]; Well no.=8492): 102%
- remaining activity at 1.25 µM ([2]; Well no.=8492): 101%

Structure (SMILES): CCC(=O)O[C@@H](O[P@](=O)(CCCCc1ccccc1)CC(=O)N1C[C@H](C2CCCCC2)C[C@H]1C(=O)O)C(C)C [Fosinopril]
- remaining activity at 3.75 µM ([1]; Well no.=1904): 89.1%
- remaining activity at 1.25 µM ([2]; Well no.=1904): 89.9%

Structure (SMILES): COc1cnc(-n2cnc(C)n2)c2c1c(C(=O)C(=O)N1CCN(C(=O)c3ccccc3)CC1)cn2COP(=O)(O)O [Fostemsavir]
- remaining activity at 3.75 µM ([1]; Well no.=7748): 102%
- remaining activity at 1.25 µM ([2]; Well no.=7748): 101%

Structure (SMILES): C[C@H]1C(=O)CC[C@@H]2[C@]1(C)CC[C@H]1[C@@]2(C)CC[C@@]2(C)[C@@H]3CC(C)(C)CC[C@]3(C)CC[C@]12C [Friedelin]
- remaining activity at 3.75 µM ([1]; Well no.=3208): 110%
- remaining activity at 1.25 µM ([2]; Well no.=3208): 109%

Structure (SMILES): O=c1[nH]c(=O)n(C2CCCO2)cc1F (stereo not drawn) [Ftorafur]
- remaining activity at 3.75 µM ([1]; Well no.=2164): 99.1%
- remaining activity at 1.25 µM ([2]; Well no.=2164): 97.3%

Structure (SMILES): N[C@@H](CSCCCO)C(=O)O [Fudosteine]
- remaining activity at 3.75 µM ([1]; Well no.=5102): 102%
- remaining activity at 1.25 µM ([2]; Well no.=5102): 100%

Structure (SMILES): C[C@]12CC[C@@H]3c4ccc(O)cc4C[C@@H](CCCCCCCCC[S+]([O-])CCCC(F)(F)C(F)(F)F)[C@H]3[C@@H]1CC[C@@H]2O (stereo partly drawn) [Fulvestrant]
- remaining activity at 3.75 µM ([1]; Well no.=2254): 96.8%
- remaining activity at 1.25 µM ([2]; Well no.=2254): 97.2%

Structure (SMILES): CO[C@@H]1[C@H](OC(=O)/C=C/C=C/C=C/C=C/C(=O)O)CC[C@]2(CO2)[C@H]1[C@@]1(C)O[C@@H]1CC=C(C)C [Fumagillin]
- remaining activity at 3.75 µM ([1]; Well no.=1621): 100%
- remaining activity at 3.75 µM ([1]; Well no.=3283): 101%
- remaining activity at 1.25 µM ([2]; Well no.=1621): 103%
- remaining activity at 1.25 µM ([2]; Well no.=3283): 102%

Structure (SMILES): O=C(O)/C=C/C(=O)O [Fumaric acid]
- remaining activity at 3.75 µM ([1]; Well no.=6539): 82.4%
- remaining activity at 1.25 µM ([2]; Well no.=6539): 101%

Structure (SMILES): CCCC[C@@H](C)[C@@H](OC(=O)C[C@@H](CC(=O)O)C(=O)O)[C@H](C[C@@H](C)CCCCCC[C@@H](O)C[C@H](O)[C@H](C)N)OC(=O)C[C@@H](CC(=O)O)C(=O)O [Fumonisin B2]
- remaining activity at 3.75 µM ([1]; Well no.=3285): 95.7%
- remaining activity at 1.25 µM ([2]; Well no.=3285): 95.4%

Structure (SMILES): Cc1nc2c([nH]1)c(=O)n(C)c(=O)n2Cc1ccco1 [Furafylline]
- remaining activity at 3.75 µM ([1]; Well no.=665): 92.2%
- remaining activity at 3.75 µM ([1]; Well no.=1544): 100%
- remaining activity at 1.25 µM ([2]; Well no.=665): 95.4%
- remaining activity at 1.25 µM ([2]; Well no.=1544): 97.6%

Structure (SMILES): O=C(O)c1cc2cc(Cc3cccnc3)ccc2o1 [Furegrelate sodium]
- remaining activity at 3.75 µM ([1]; Well no.=563): 97.3%
- remaining activity at 1.25 µM ([2]; Well no.=563): 97.2%

Structure (SMILES): NS(=O)(=O)c1cc(C(=O)O)c(NCc2ccco2)cc1Cl [Furosemide]
- remaining activity at 3.75 µM ([1]; Well no.=659): 94.4%
- remaining activity at 3.75 µM ([1]; Well no.=2166): 99.5%
- remaining activity at 3.75 µM ([1]; Well no.=7462): 102%
- remaining activity at 1.25 µM ([2]; Well no.=659): 92.2%
- remaining activity at 1.25 µM ([2]; Well no.=2166): 101%
- remaining activity at 1.25 µM ([2]; Well no.=7462): 102%

Structure (SMILES): CCCCc1ccc(C(=O)O)nc1 [Fusaric acid]
- remaining activity at 3.75 µM ([1]; Well no.=613): 99.1%
- remaining activity at 1.25 µM ([2]; Well no.=613): 98.5%

Structure (SMILES): CC(=O)O[C@H]1C[C@@]2(C)[C@@H](C[C@@H](O)[C@H]3[C@@]4(C)CC[C@@H](O)[C@@H](C)[C@@H]4CC[C@@]32C)/C1=C(\CCC=C(C)C)C(=O)O [Fusidic acid sodium]
- remaining activity at 3.75 µM ([1]; Well no.=657): 101%
- remaining activity at 1.25 µM ([2]; Well no.=657): 104%

Structure (SMILES): c1cc(-c2sc(-c3ccncc3)c(-c3ccncc3)c2-c2ccncc2)ccn1 [GANT58]
- remaining activity at 3.75 µM ([1]; Well no.=5874): 86.5%
- remaining activity at 1.25 µM ([2]; Well no.=5874): 94.6%

Structure (SMILES): Fc1ccc(C(OCCN2CCN(CCCc3ccccc3)CC2)c2ccc(F)cc2)cc1 [GBR-12909 dihydrochloride]
- remaining activity at 3.75 µM ([1]; Well no.=590): 98.5%
- remaining activity at 1.25 µM ([2]; Well no.=590): 98.5%

Structure (SMILES): c1ccc(CCCN2CCN(CCOC(c3ccccc3)c3ccccc3)CC2)cc1 [GBR-12935 dihydrochloride]
- remaining activity at 3.75 µM ([1]; Well no.=765): 87.4%
- remaining activity at 1.25 µM ([2]; Well no.=765): 91%

Structure (SMILES): CC(C)NC[C@@H](C(=O)N1CCN(c2ncnc3c2[C@H](C)C[C@H]3O)CC1)c1ccc(Cl)cc1 [GDC-0068]
- remaining activity at 3.75 µM ([1]; Well no.=5131): 106%
- remaining activity at 1.25 µM ([2]; Well no.=5131): 104%

Structure (SMILES): CN[C@@H](C)C(=O)N[C@H](C(=O)N1CCC[C@H]1C(=O)Nc1snnc1-c1ccccc1)C1CCCCC1 [GDC-0152]
- remaining activity at 3.75 µM ([1]; Well no.=6692): 95.6%
- remaining activity at 1.25 µM ([2]; Well no.=6692): 103%

Structure (SMILES): CCNC(=O)Nc1ccc(-c2nc3c(c(N4CCOC[C@@H]4C)n2)CCN(C2COC2)C3)cc1 [GDC-0349]
- remaining activity at 3.75 µM ([1]; Well no.=5220): 95.1%
- remaining activity at 1.25 µM ([2]; Well no.=5220): 97.8%
